Reference: patent publication US12351565B2, “Aromatic compound and preparation method therefor and use thereof” (SHANGHAI JIANHE PHARMACEUTICAL & TECHNOLOGY CO. LTD., priority 2018, dated 2025)
Like-named read-outs stand apart in the source and are kept apart here.

How the values were obtained:
C57 mice [1] = assay: Forced swimming experiment, intraperitoneal administration to mice; format: in vivo; conditions: for inhibition in vivo at 10 mg/kg: Mus musculus, ip; for 1 h inhibition rate: forced swimming 1 h after single intraperitoneal 10 mg/kg
Protocol: The forced-swimming test is currently the most widely used classic method to evaluate the antidepressant effects of compounds in rodents. […] The time in immobile state of experimental animal is observed and recorded, which can be used to evaluate the effect of antidepressant compounds.
1 h and 24 h after a single intraperitoneal administration of 10 mg/kg, forced swimming tests were respectively carried out to investigate the effects of different compounds on depression-like behaviors of C57 mice.
(§1) Experimental animals were 6-week aged C57 mice, male, and C57 mice were purchased from Shanghai SLAC Laboratory Animal Co., Ltd., with a body weight of 20.45±0.19 g. Before the experiment, they arrived at the Animal Feeding Center of Shanghai Institute of Materia Medica, Chinese Academy of Sciences (Animal Production License: SCXK9[Shanghai]2004-0002, usage license: SYXK[Shanghai]2003-0029), and adapted for 3 days or more in animal facilities. They were bred at 6 animals/cage. The breeding environment was room temperature 23±0.2° C., with 12/12 hours alternation of day and night. Before the behavioral test, the animals should be moved to the behavioral test operation room 2 hours in advance to adapt to the environment and reduce their tension.
Preparation of the test product: each test compound was accurately weighed and dissolved in 0.9% NaCl solution, mixed thoroughly, and prepared as a 1 mg/ml solution, set aside.
(§2) 24 hours before the administration, the mice were placed in a cylindrical tank to adapt to the aquatic environment for 10 min. On the day of the behavioral test, the animals were respectively administered intraperitoneally once at 1 h and 24 h before the behavioral test. The mice were placed individually into a cylindrical glass tank with a height of 30 cm and a diameter of 20 cm. The water depth in the tank was 15 cm, so that the animals could not escape from the glass tank and their feet and tails could not touch the bottom of the tank, the water temperature was 23° C.-25° C. A 6 minute video was taken after the mouse entered into water. Since most animals were very active in the first two minutes, the immobility time in the following 4 minute were calculated (criterion of immobility: the mouse stops struggling in the water, stays still and has small limbs movement to maintain balance or to keep a floating state).
(§3) The antidepressant effect of a compound was evaluated by the ability of the compound to reduce the immobility time of the animal in the forced swimming test as compared with the blank group. The shorter the immobility time of the animal to be tested, the higher the inhibition rate and the stronger the antidepressant activity. Inhibition rate1 h(%)=immobility time(blank, 1 h)−immobility time(administration, 1 h)/immobility time(blank, 1 h)×100% Inhibition rate24 h(%)=immobility time(blank, 24 h)−immobility time(administration, 24 h)/immobility time(blank, 24 h)×100%

C57 mice [2] = assay: Forced swimming experiment, oral administration to mice; format: in vivo; conditions: C57 mice
Protocol: 1 h and 24 h after a single oral administration of 20 mg/kg, forced swimming experiments were then carried out to investigate the effects of different compounds on depression-like behavior in C57 mice.
as §1, with “male,” for “male, and”
Preparation of the test product: each test compound was accurately weighed and dissolved in 0.9% NaCl solution, mixed thoroughly, and prepared into 1 mg/ml and 2 mg/ml solutions respectively, and set aside.
as §2, with “intragastrically” for “intraperitoneally”
as §3, with “group.” for “group. The shorter the immobility time of the animal to be tested, the higher the inhibition rate and the stronger the antidepressant activity.”, “rate24h(%)=immobility” for “rate24 h(%)=immobility”

[3] = In vivo pharmacokinetic experiment in mice; conditions: C57 mice; for AUC0-t / AUC0-∞ / MRT / half-life / clearance / Vd / Cmax / Tmax: plasma; for F: 20 mg/kg p.o. vs 5 mg/kg i.v.; for MRT / half-life / clearance / Vd / Cmax / Tmax: male, mouse; for Vd: read-out: Vss
Protocol: Healthy male C57 mice were randomly divided into groups with 3 mice in each group, and the test compounds were administrated intragastrically or by intravenous injection. See Table 6 below for specific arrangements:
(§4) Each test compound was dissolved in physiological saline to prepare a certain concentration of solution for administration.
(§5) One day before administration, the mice were fasted and allowed to drink freely for 12-14 h. The mice were fed 4 h after administration.
0.030 mL of blood was took from each animal each time through the orbit, and anticoagulated with EDTAK2. The collection time points were as follows: in PO group, 5 min, 15 min, 30 min, 1 h, 2 h, 4 h, 6 h, 8 h, 24 h after administration of test substance; in IV group, 2 min, 5 min, 15 min, 30 min, 1 h, 2 h, 4 h, 6 h, 8 h, 24 h after administration of test substance. After blood samples were collected, they were placed on ice and centrifuged to separate the plasma within 30 minutes (centrifugation conditions: 5000 rpm, 10 minutes, 4° C.). The sample were stored at −80° C. before analysis.

[4] = rats, literature (Journal of Psychopharmacology, 2019, 33, 12-24), cited from earlier work
[5] = in mice, background statement; cited from earlier work
[6] = cited from earlier work
hERG potassium channel = biological target: T1, hERG potassium channel (Homo sapiens, UniProt Q12809); assay: hERG potassium channel inhibition experiment (automatic patch clamp, CHO-hERG cells); format: cell-based; conditions: Qpatch, highest tested concentration 40 μM, read-out: IC50, blocking effect on the hERG potassium current
T1 construct: expressed in transfected cells
Protocol: Fully automatic patch clamps were used to test the blocking effect of the compounds of the present invention on the hERG potassium current on a stable cell line transfected with hERG potassium channels.
CHO-hERG cells were cultured in 175 cm^2 culture flask. When the cell grew to 60-80% confluence, the culture medium was removed. The cells were washed with 7 ml PBS (Phosphate Buffered Saline) once, and then 3 ml Detachin was added to digest.
After the digestion was completed, 7 ml culture medium was added to neutralize. The mixture was centrifuged, and after the supernatant was removed, 5 ml culture medium was added to resuspend to ensure the cell density was 2×10^6-5×10^6/ml.
Single-cell high-impedance sealing and whole-cell mode formation were all automatically completed by using the Qpatch instrument. After the recording mode was obtained, the cell was clamped at −80 millivolts. Before +40 millivolt depolarization stimulation for 5 seconds was given, −50 millivolt pre-voltage for 50 millisecond was first given, then repolarized to −50 millivolt for 5 seconds, and then returned to −80 millivolt. This voltage stimulus was applied every 15 seconds. After recording for 2 min, extracellular fluid was given, and recording was conducted for 5 min, and then the dosing process started. The compound concentration started from the lowest test concentration, and each test concentration was given for 2.5 min. […] At least 3 cells per concentration (n≥3) were tested.
20 mM compound mother liquor was diluted with extracellular fluid. 5 μL of 20 mM compound mother liquor was taken and added into 2495 μL extracellular fluid, so that it was diluted 500 times to 40 μM, and was then serially diluted 3 times in an extracellular fluid containing 0.2% DMSO to obtain the final concentration to be tested.
The highest tested concentration was 40 μM, and the concentrations were in order as follows: 40, 13.33, 4.44, 1.48, 0.49, 0.16 μM, totally 6 concentrations.
Experimental data were analyzed by XLFit software.

[7] = Distribution in mouse brain tissue; format: in vivo, C57 mice; conditions: male, brain, po; C57 mouse, 10 mg/kg p.o., 30 min
Protocol: Healthy male C57 mice were randomly divided into groups with 3 mice in each group, and the test compound was administrated intragastrically. See Table 10 below for specific arrangements:
as §4, §5
After the animals were bled, the brain tissue was collected. After washing, 50% ice methanol was added for homogenate at 1:4 (m/v). The collection time points was 10 min, 15 min, 30 min, 1 h, 2 h after administration of the test substance; 30.0 μL of tissue sample was taken (the sample was taken out from the refrigerator at −80° C., vortexed for 30 seconds after natural melting at room temperature) and added into a 1.5 mL centrifuge tube. 300.0 μL internal standard solution (30 ng/mL […] acetonitrile solution) was added, the mixture was vortex for 60 seconds and then centrifuged for 3 minutes (centrifugal force was 12000 rpm); 75 μL of the supernatant was taken and transferred to 96-well injection plate loaded with equal volume of water, shaken and mixed well, and subjected to LC-MS/MS analysis, wherein injection volume was 10 μL.

[8] = 1 h, read-out: 1 h inhibition rate
[9] = 24 h, read-out: 24 h inhibition rate
[10] = inhibition of immobility time, C57 mice
[11] = inhibition of immobility time, forced swimming 1 h after single oral (intragastric) 20 mg/kg
[12] = inhibition of immobility time, forced swimming 24 h after single oral (intragastric) 20 mg/kg
[13] = brain tissue, 50 mg/kg p.o., literature (Journal of Psychopharmacology, 2019, 33, 12-24)

T1 sequence (Q12809 whole entry): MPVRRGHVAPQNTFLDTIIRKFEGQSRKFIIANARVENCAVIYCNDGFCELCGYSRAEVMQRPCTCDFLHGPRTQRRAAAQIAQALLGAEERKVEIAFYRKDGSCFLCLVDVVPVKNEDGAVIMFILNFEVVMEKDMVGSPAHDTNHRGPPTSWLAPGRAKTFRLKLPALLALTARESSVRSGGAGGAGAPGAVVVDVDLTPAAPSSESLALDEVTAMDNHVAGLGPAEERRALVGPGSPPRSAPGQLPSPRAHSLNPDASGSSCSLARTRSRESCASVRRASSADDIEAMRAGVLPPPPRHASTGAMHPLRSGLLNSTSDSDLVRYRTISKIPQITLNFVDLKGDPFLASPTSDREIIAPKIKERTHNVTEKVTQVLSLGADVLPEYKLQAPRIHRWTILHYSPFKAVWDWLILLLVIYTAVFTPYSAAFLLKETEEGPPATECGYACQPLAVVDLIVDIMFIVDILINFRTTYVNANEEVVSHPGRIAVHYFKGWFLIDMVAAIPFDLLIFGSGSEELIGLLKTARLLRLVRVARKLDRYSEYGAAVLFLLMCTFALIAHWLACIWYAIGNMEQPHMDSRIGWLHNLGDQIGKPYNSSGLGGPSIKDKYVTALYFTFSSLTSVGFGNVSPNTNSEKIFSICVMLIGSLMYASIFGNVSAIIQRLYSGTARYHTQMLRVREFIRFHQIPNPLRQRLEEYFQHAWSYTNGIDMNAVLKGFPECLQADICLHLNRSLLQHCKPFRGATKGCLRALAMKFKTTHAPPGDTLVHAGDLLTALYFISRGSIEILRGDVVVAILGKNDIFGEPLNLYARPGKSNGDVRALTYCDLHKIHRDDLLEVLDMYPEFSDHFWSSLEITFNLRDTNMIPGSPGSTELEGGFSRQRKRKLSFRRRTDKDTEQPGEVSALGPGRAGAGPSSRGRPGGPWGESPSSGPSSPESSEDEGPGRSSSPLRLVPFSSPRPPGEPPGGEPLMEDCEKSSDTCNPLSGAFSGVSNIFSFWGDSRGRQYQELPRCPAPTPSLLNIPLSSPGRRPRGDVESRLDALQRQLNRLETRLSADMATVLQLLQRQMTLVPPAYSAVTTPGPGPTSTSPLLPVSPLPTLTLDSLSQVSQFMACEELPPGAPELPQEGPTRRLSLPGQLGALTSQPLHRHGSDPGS

Structure (SMILES)	inhibition in vivo at 10 mg/kg (C57 mice [1]; [8])	inhibition in vivo at 10 mg/kg (C57 mice [1]; [9])	1 h inhibition rate (C57 mice [1]; [10])	1 h inhibition rate (C57 mice [2]; [11])	24 h inhibition rate (C57 mice [2]; [12])	AUC0-t ([3]; 5 mg/kg i.v.)	AUC0-∞ ([3]; 5 mg/kg i.v.)	F [3]	AUC0-t ([3]; 20 mg/kg p.o.)	AUC0-∞ ([3]; 20 mg/kg p.o.)	MRT ([3]; iv, 5 mg/kg i.v.)	half-life ([3]; iv, 5 mg/kg i.v.)	clearance ([3]; iv, 5 mg/kg i.v.)	Vd ([3]; iv, 5 mg/kg i.v.)	Cmax ([3]; po, 20 mg/kg p.o.)	MRT ([3]; po, 20 mg/kg p.o.)	Tmax ([3]; po, 20 mg/kg p.o.)	half-life ([3]; po, 20 mg/kg p.o.)	IC50 (hERG potassium channel)	also measured
Cl.N[C@@]1(c2ccccc2Cl)CCC[C@@H](O)C1=O [(2R,6R)-HNK, (2R, 6R)-HNK, reference compound]	31.1%	27.4%	31.1 ± 4.0%	18.4 ± 1.6%	19.6 ± 4.4%	2085 ngh/mL	2096 ngh/mL	66.8%	5589 ngh/mL	5599 ngh/mL	23.4 min	20.4 min	40.7 mL/min/kg	0.94 L/kg	7180 ng/mL	52.5 min	5 min	55.8 min		24 h inhibition rate (C57 mice [1]; inhibition of immobility time, forced swimming 24 h after single intraperitoneal 10 mg/kg, C57 mice): 27.4 ± 3.9%; AUC0-∞ ([4]; 10 mg/kg i.v.): 6270 ngh/mL; CL ([4]; 10 mg/kg i.v.): 27 mL/min/kg; T1/2 ([4]; 10 mg/kg i.v.): 480 min; Vss ([4]; 10 mg/kg i.v.): 7.5 L/kg; AUC0-∞ ([4]; 10 mg/kg p.o.): 2650 ngh/mL; Cmax ([4]; 10 mg/kg p.o.): 1500 ng/mL; F ([4]; 10 mg/kg p.o.): 42%; T1/2 ([4]; 10 mg/kg p.o.): 414 min; Tmax ([4]; 10 mg/kg p.o.): 10 min; T1/2 [5]: < 60 min; Brain tissue concentration ([6]; 10 mg/kg intraperitoneally, literature (Nature, 2016, 533, 481-486; Nature, 2017, 546, E1-E5)): 2562 ng/g; Brain tissue concentration ([6]; 50 mg/kg p.o., 10 min, literature (Journal of Psychopharmacology, 2019, 33, 12-24)): 6490 to 8600 ng/g; AUC0-∞ [6, 13]: 2850 to 5190 ng·h/g; T1/2 [6, 13]: 42 min
Cl.NC1(c2ccc(C(F)(F)F)cc2)CCCC(O)C1=O (stereo not shown) [Compound 46, 2-amino-6-hydroxy-2-(4-(trifluoromethyl)phenyl)cyclohexane-1-one hydrochloride]	34.7 ± 4.1%	43.5%		31.2 ± 4.7%	32.3 ± 1.5%														> 40 µM	
Cl.N[C@@]1(c2cccc(OC(F)(F)F)c2F)CCC[C@@H](O)C1=O [Compound 64, (2R,6R)-2-amino-2-(2-fluoro-3-(trifluoromethoxy)phenyl)-6-hydroxycyclohexane-1-one hydrochloride]				36.5 ± 5.3%	34.5 ± 1.0%	4817 ngh/mL	4838 ngh/mL	66.2%	12708 ngh/mL	12816 ngh/mL	52.8 min	52.2 min	17.2 mL/min/kg	0.91 L/kg	11900 ng/mL	125 min	5 min	239 min	> 40 µM	concentration at 30 min [7]: 5740 ng/g
CNC1(c2ccccc2Cl)CCCCC1=O (stereo not shown) [Ketamine, ketamine, reference compound]	29.2%	35.4 ± 7.9%	29.2 ± 4.6%																	1 h inhibition rate (C57 mice [2]; control given intraperitoneally 10 mg/kg, 1 h): 22.7 ± 0.2%; 24 h inhibition rate (C57 mice [2]; control given intraperitoneally 10 mg/kg, 24 h): 25.1 ± 2.7%; Brain tissue concentration ([6]; 30 mg/kg intraperitoneally, literature (Journal of Pharmaceutical and Biomedical Analysis, 2018, 148, 288-297)): 1929 ng/g
